The record followed here is PubChem BioAssay AID1918991 (Molecular Pharmacology Branch, DTP, NCI, 2023).

Values joined by “and” are separate entries in the source; they are usually repeats but may differ in a detail not shown here. Identical values can stand only once.

The subject of this test is 186277-243-T-J2-PDC complex spheroid growth. As to the kind of experiment: Anticancer human tumor 186277-243-T-J2-PDC patient-derived colon adenocarcinoma cell line growth inhibition [AhR]. To be noted: for viability, T/C: stronger effect = lower value; for IC50: curve of compound. From the text:
Multicellular complex tumor spheroid response to aryl hydrocarbon receptor antagonists in combination with a variety of drugs and investigational agents in selected tumor cell lines
The current study was undertaken to assess response to aryl hydrocarbon receptor antagonists in combination with standard-of-care drugs and investigational agents in solid tumor complex spheroid models. Complex spheroids include a stromal component modeled by human endothelial cells (HUVEC) and fibroblasts modeled by human mesenchymal stem cells (MSCs). The concentration ranges selected for each drug and investigational agent were based upon clinically achievable concentrations if the clinical Cmax of the agent was known.
Compounds. The drugs and investigational agents: BAY 2416964 (NSC825713), GNF351 (NSC835774), CH-223191 (NSC835775), CPI-455 (NSC825282), aza-TdCyd (NSC777586), decitabine (NSC127716), belinostat (NSC758774), entinostat (NSC756642), pevonedistat (NSC761192), tazemetostat (NSC777109), talazoparib (NSC765396), olaparib (NSC753686), selinexor (NSC780203), nedisertib (M3814, NSC802822), bortezomib (NSC756655), venetoclax (NSC766270), doxorubicin (NSC123127), elimusertib (BAY189344, NSC800525), ceralasertib (AZD6738, NSC777638), TAK-243 (NSC785004), alisertib (NSC759677), etoposide (NSC141540), topotecan (NSC609699), eribulin (NSC707389), gemcitabine (NSC613327), carboplatin (NSC241240), cisplatin (NSC119875), and SN-38 (NSC673596) were obtained from the National Cancer Institute (NCI) Developmental Therapeutics Program Chemical Repository (32). The FDA-approved anticancer drug set is available from the Developmental Therapeutics Program at https://dtp.cancer.gov/organization/dscb/obtaining/available plates.htm. […] The stock solutions were prepared in dimethyl sulfoxide (DMSO, Sigma-Aldrich, St. Louis, MO, cat. D2650), except for the platinum compounds which were prepared in saline (Quality Biological, Gaithersburg, MD, cat. 114-055-101), at 800-fold the tested concentration and stored at -70 degrees C prior to their use. All drugs and investigational agents were tested over a range starting from a high concentration at or near the clinical Cmax and decreasing in half-log increments. If the clinical Cmax for an agent had not been determined, the highest concentration tested was 10 microM (Table 1).
Cell Culture. All cells were maintained in an incubator at 37 degrees C and 5% CO2 with 95% humidity. The PDC lines were cultured according to standard operating procedures established by the NCI PDMR (https://pdmr.cancer.gov). Briefly, all PDCs were thawed and cultured in Matrigel-coated flasks prepared with a working solution of 1X Ham's F-12 nutrient mix, without supplementation (Invitrogen, Waltham, MA, cat. 11765054), 100 U/mL penicillin-streptomycin (Invitrogen, cat. 15140122), and 2.5% Matrigel (Corning Inc., Corning, NY, cat. 354248) for the first three passages. All PDCs were cultured in complete DMEM/F-12 media containing advanced DMEM/F-12 (Invitrogen, cat. 12634028), 4.9% defined fetal bovine serum, heat inactivated (HyClone Laboratories Inc., Logan, UT, cat. SH30070.03HI), 389 ng/mL hydrocortisone (Sigma-Aldrich, cat. H4001), 9.7 ng/mL human EGF recombinant protein (Invitrogen, cat. PHG0313), 23.4 microg/mL adenine (Sigma-Aldrich, cat. A2786), 97.3 U/mL penicillin-streptomycin (Invitrogen, cat. 15140122), 1.9 mM L-glutamine (Invitrogen, cat. 25030081), and 9.7 microM Y-27632 dihydrochloride (Tocris Bioscience, Bristol, United Kingdom, cat. 1254). The PDCs were cultured in complete DMEM/F12 media without 10 microM Y-27632 dihydrochloride for at least two passages prior to the screen. The established cell lines NCI-H1341 and […] were cultured in DMEM/F-12, HEPES (Invitrogen, cat. 11330032), 5% defined fetal bovine serum (HyClone Laboratories Inc., cat. SH30070.03), ITS premix universal culture supplement [insulin (5 microg/mL), transferrin (5 microg/mL), and selenious acid (5 ng/mL)] […]
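Also: spheroids exposed to compounds for seven days before the viability read.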
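For viability, T/C in this document: luminescent signal used as a stand-in for viable cell amount; 100% = DMSO vehicle control wells.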

In general, viability, T/C refers to the ratio of treated to control. The term IC50 denotes the concentration needed to halve the response being measured. On to `Cn1ncnc1C1c2n[nH]c(=O)c3cc(F)cc(c23)NC1c1ccc(F)cc1` (configuration not stated), for which the IC50 is over 100 nM. Moreover, for the setting “compound 0.000316 µM”, the viability, T/C was 102% and 97.2% and 113%. The viability, T/C (compound 0.001 µM) was 97.8% and 111% and 108%. Further, the viability, T/C (compound 0.00316 µM) was 91.4% and 107% and 93.2%. Moreover, the viability, T/C (compound 0.01 µM) is 103% and 107% and 102%. For the same compound, under “compound 0.0316 µM”, the viability, T/C was 99.6% and 119% and 78.8%. Where the note is “compound 0.1 µM”, the viability, T/C is 110% and 114% and 69%.
With `NS(=O)(=O)OCC1CC(n2ccc3c(NC4CCc5ccccc54)ncnc32)CC1O` (configuration not stated), the IC50 was 949 nM and 927 nM and 412 nM. In addition, the viability, T/C (compound 0.0316 µM) is 89.3% and 94.6% and 101%. Besides, where the note is “compound 0.1 µM”, the viability, T/C was 102% (2×) and 88.4%. For the same compound, the viability, T/C (compound 0.316 µM) was 89.2% and 88.5% and 60.5%. Besides, the viability, T/C (compound 1 µM) was 45.8% and 44.2% and 18.4%. Further, the viability, T/C (compound 3.16 µM) is 20.8% and 25.7% and 4.9%. Further, under “compound 10 µM”, the viability, T/C is 5.48% and 7.98% and 1.51%.
Regarding `Nc1ccccc1NC(=O)c1ccc(CNC(=O)OCc2cccnc2)cc1`, the concentration for half-maximal inhibition (IC50) was 4530 nM and 5440 nM and 639 nM. The viability, T/C (compound 0.0316 µM) was 88.5% and 90.8% and 86.3%. Further, the viability, T/C (compound 0.1 µM) was 93.2% and 91.9% and 87.4%. Besides, the viability, T/C (compound 0.316 µM) is 76.2% and 99.5% and 68.8%. For the same compound, the viability, T/C (compound 1 µM) was 86.5% and 92.2% and 37%. Moreover, the viability, T/C (compound 3.16 µM) is 68.6% and 79.5% and 12.6%. Besides, for the setting “compound 10 µM”, the viability, T/C is 8.95% and 16.8% and 0.82%.
In the case of `Nc1ccn(C2OC(CO)C(O)C2(F)F)c(=O)n1` (configuration not stated), the IC50 was under 31.6 nM. Further, for the setting “compound 0.0316 µM”, the viability, T/C is 9.07% and 4.89% and 17.2%. The viability, T/C (compound 0.1 µM) is 8.27% and 4.63% and 16.2%. Under “compound 0.316 µM”, the viability, T/C was 8.12% and 4.79% and 17.4%. In addition, under “compound 1 µM”, the viability, T/C is 8.52% and 4.4% and 18.1%. Also, the viability, T/C (compound 3.16 µM) is 9.77% and 4.35% and 19.5%. Besides, for the setting “compound 10 µM”, the viability, T/C was 9.11% and 3.84% and 21.3%.
Turning to `Nc1ncn(C2CC(O)C(CO)O2)c(=O)n1` (configuration not stated), the IC50 was > 1000 nM and 982 nM. Moreover, the viability, T/C (compound 0.00316 µM) was 102% and 96.5% and 89.6%. Also, the viability, T/C (compound 0.01 µM) was 104% and 110% and 93.2%. For the setting “compound 0.0316 µM”, the viability, T/C was 98.8% and 108% and 88.1%. Moreover, the viability, T/C (compound 0.1 µM) is 114% and 107% and 76.6%. Also, the viability, T/C (compound 0.316 µM) was 137% and 110% and 65.2%. Under “compound 1 µM”, the viability, T/C was 133% and 121% and 49.5%.
As for `Nc1ncn(C2CC(O)C(CO)S2)c(=O)n1` (configuration not stated), the IC50 was > 300 nM and 134 nM. Moreover, the viability, T/C (compound 0.000949 µM) was 87.2% and 104% and 95.7%. In addition, the viability, T/C (compound 0.003 µM) is 88% and 111% and 97.1%. In addition, for the setting “compound 0.00949 µM”, the viability, T/C is 108% and 115% and 92.5%. Also, the viability, T/C (compound 0.03 µM) was 125% and 111% and 78.5%. In addition, the viability, T/C (compound 0.0949 µM) was 128% and 116% and 60.8%. Further, the viability, T/C (compound 0.3 µM) was 102% and 117% and 26.4%.
As to `O=C(C=Cc1cccc(S(=O)(=O)Nc2ccccc2)c1)NO`, the IC50 was 1160 nM and 2160 nM and 285 nM. The viability, T/C (compound 0.0316 µM) was 96.8% and 107% and 99.7%. The viability, T/C (compound 0.1 µM) was 93.5% and 112% and 84.1%. Also, under “compound 0.316 µM”, the viability, T/C was 99.1% and 95.8% and 46.9%. Further, the viability, T/C (compound 1 µM) is 55.2% and 91.8% and 13.2%. Besides, where the note is “compound 10 µM”, the viability, T/C was 5.03% and 5.28% and 0.5%.
Take `O=C(C=Cn1cnc(-c2cc(C(F)(F)F)cc(C(F)(F)F)c2)n1)NNc1cnccn1`: the IC50 is 474 nM and 524 nM and 61.5 nM. Moreover, the viability, T/C (compound 0.00949 µM) was 92.2% and 97% and 81.2%. Also, the viability, T/C (compound 0.03 µM) was 102% and 90.7% and 65.3%. The viability, T/C (compound 0.0949 µM) is 102% and 91.8% and 41.7%. Under “compound 0.3 µM”, the viability, T/C was 74.7% and 80.7% and 10.9%. Also, the viability, T/C (compound 0.949 µM) was 12.6% and 17.4% and 2.87%. Also, under “compound 3 µM”, the viability, T/C is 4.45% and 8.73% and 1.48%.
Take `O=C(c1cc(Cc2n[nH]c(=O)c3ccccc23)ccc1F)N1CCN(C(=O)C2CC2)CC1`: the IC50 was > 10000 nM and 6300 nM. For the setting “compound 0.0316 µM”, the viability, T/C is 97.8% and 98% and 85.2%. Further, under “compound 0.1 µM”, the viability, T/C was 93.2% and 103% and 106%. Moreover, the viability, T/C (compound 0.316 µM) is 114% and 94.5% and 98.3%. The viability, T/C (compound 1 µM) was 109% and 92.3% and 85%. Besides, the viability, T/C (compound 3.16 µM) is 132% and 89.9% and 70.9%. Also, the viability, T/C (compound 10 µM) was 120% and 114% and 36.5%.
